Like-named read-outs stand apart in the source and are kept apart here.
Assays:
[1] = Pharmacokinetic studies (oral and intravenous dosing) in jugular vein cannulated rats; details: for AUC(0-inf): AUC0-inf; for bioavailability: F0-inf (absolute oral bioavailability)
Experimental: Absolute oral bioavailability and other pharmacokinetic parameters were determined in a series of two-period, crossover studies, where the cannabinoids were administered intravenously in the first period, and orally in the second. Both jugular veins were cannulated (3 Fr polyurethane catheter, Instech Laboratories, Plymouth Meeting, USA). One catheter was used for intravenous dosing, and the second one was used for repetitive blood sampling in order to avoid sampling cannula contamination with highly concentrated intravenous drug solution. The anesthesia was performed using a rapid inhalational induction with isoflurane (IsoFlo, Zoetis, Czech Republic) followed by intramuscular injection of ketamine 100 mg/kg (Narkamon, Bioveta a.s., Czech Republic) and xylazine 5 mg/kg (Rometar, Bioveta a.s., Czech Republic). After a three-day recovery period, the rats were intravenously dosed with the particular cannabinoid (1 mg of CBD, 1.5 mg of the other three cannabinoids in the form of nanoemulsion, volume 100 μL). Systemic blood (100 μL) was drawn at 5, 15, and 30 min and at 1, 2, 4, 6, 8, 10, and 24 h(s) postdose. After a two-day wash-out period, the dosing via oral gavage followed (10 mg of CBD, 15 mg of the other three cannabinoids in the form of nanoemulsion, volume 1 mL). Systemic blood (100 μL) was drawn at 0 (predose), 0.5, 1, 2, 3, 4, 5, 6, 8, 10, and 24 h(s). Blood samples were centrifuged (4500 rpm for 10 min) and serum was extracted and stored in −80 °C until analysis. The laboratory was unaware of animal assignment to particular experimental groups (laboratory blinding).
Serum and lymph concentrations in all studies were dose-normalized to 1 mg/kg prior to further calculations. AUC values were determined using linear trapezoidal rule. Exact actual sampling times were used for this purpose. Scheduled sampling times were used for mean concentration plotting in the graphs. PK-solver add-on for MS Excel was used for all basic pharmacokinetic calculations. GraphPad Prism version 10.2.2 (GraphPad Software, San Diego, CA, USA) was used for all statistical analyses and graph plotting. Unpaired Student’s t test was used to compare pharmacokinetic and lymphatic transport parameters between the experimental groups. Level of significance was set to p < 0.05.
Lymphatic transport parameters were defined and calculated as previously described. , Briefly, absolute bioavailability via lymph (FAL) was defined as percentage of administered drug dose absorbed into the lymph. It was determined directly from lymph volume and drug concentration in lymph duct cannulated rats. Absolute bioavailability via portal vein (FAP) was analogically defined as percentage of administered drug dose reaching the systemic circulation after direct absorption into blood. It was calculated using equation 1 FAP=AUCent/AUCiv where AUCent is the area under the dose-normalized blood concentration–time curve after enteral dosing in lymph duct cannulated (i.e., lymph deprived) rats and AUCiv is the respective parameter in a separate intravenously dosed group. Total absolute bioavailability (F) in lymph duct cannulated rats was calculated as a sum of FAL and FAP. In normal animals with no lymph duct cannulation, F was calculated using standard formula for oral bioavailability: 2 F=AUCpo/AUCiv Relative bioavailability via lymph (FRL) was defined as the percentage of systemically available drug that was absorbed via lymph. It was calculated using the equation 3 FRL=FAL/F

[2] = assay type: physicochemical; details: final nanoemulsion
Experimental: To test pharmacokinetic parameters for various cannabinoids, the self-emulsifying drug delivery system (SEDDS) was selected due to its facile preparation and as it has shown an enhanced absorption profile for CBD.1 However, prior to administration the oil phase was mixed with water forming nanoemulsion to decrease viscosity and facilitate application to rats. […]
formulation is in the paper referred to as nanoemulsion.
In general, the nanoemulsion was prepared as follows. First, the oil phase containing Propylene glycol monocaprylate (PGMC), surfactant Kolliphor EL (CR-EL), co-surfactant and cannabinoid was prepared and thoroughly homogenized. As co-surfactants, we tested three compounds:
Diethylene glycol monoethyl ether (TRSC) or Ethyl alcohol (ETOH) or Propylene glycol (PRGL).
Next, four parts of water with respect to one part of oil (by weight) were added dropwise to the oil mixture at mild stirring. The stability of prepared nanoemulsions (initially without cannabinoids) was evaluated using dynamic light scattering (LS Instruments, Switzerland). […] and unstable samples, characterized by very high turbidity or phase separation, respectively, were not further analyzed. Optimization results are shown in the form of ternary diagrams for three tested co-surfactants (TRSC, ETOH, PRGL) in Fig. S1.
According to the manufacturer, CBD is most soluble in PGMC among other products.2 High solubility was also expected for other cannabinoids, thus PGMC was chosen as a suitable oil-phase base for nanoemulsion formulation in this study. Next, CR-EL was selected as a surfactant capable of forming nanoemulsions with PGMC in a wide range of concentrations (based on previous non-published experiments). To optimize the composition, stability and the size dependence of various emulsion mixtures were investigated for systems containing the aforementioned components and selected co-surfactants – TRSC, ETOH and PRGL (without cannabinoids). According to the […]
with desirable sizes (Fig. S1). Furthermore, TRSC is a proven skin permeation enhancer and solubilizer. Moreover, as shown by Franceschinis et al., TRSC acted as an excellent absorption […]
enhancer for 4,6,4′trimethylangelicin during oral administration. […]
co-surfactant and solubilizer for the final formulation tested in the pharmacokinetic study.
The final composition of nanoemulsion was chosen based on the compromise between the cannabinoids' loading capacity and the used surfactant amount. The final formulation contained 50wt.% of CR-EL, 30wt.% of TRSC and 20wt.% of PGMC. Long-term stability for the optimized formulation was tested for two cannabinoid concentrations – 15 mg/ml and 30 mg/ml. Results are shown in Tab. S1. The size was below 30 nm even after 30 days for all cannabinoids at 15mg/ml […]
Although all formulations were stable over time and to avoid any colloid instability and cannabinoid decomposition, the water phase was added to the oil phase directly before application in pharmacokinetic study.

[3] = rat, in vivo, iv, 1.5 mg, nanoemulsion, rats, serum, dose-normalized to 1 mg/kg, mean ± SD
[4] = rat, in vivo, iv, 1.5 mg, T1/2, nanoemulsion, rats, mean ± SD
[5] = rat, in vivo, po, nanoemulsion, rats, serum, dose-normalized to 1 mg/kg, mean ± SD
[6] = rat, in vivo, po, oil solution, rats, serum, dose-normalized to 1 mg/kg, mean ± SD
[7] = rat, in vivo, po, nanoemulsion, rats, 10 mg CBD, 15 mg others, serum, dose-normalized to 1 mg/kg, mean ± SD
[8] = rat, in vivo, po, oil solution, rats, 10 mg CBD, 15 mg other cannabinoids, serum, dose-normalized to 1 mg/kg, mean ± SD
[9] = rat, in vivo, po, nanoemulsion, rats, mean ± SD
[10] = rat, in vivo, po, oil solution, rats, mean ± SD
[11] = rat, in vivo, po, T1/2, nanoemulsion, rats, mean ± SD
[12] = rat, in vivo, po, T1/2, oil solution, rats, mean ± SD

Structure (SMILES)	Vd ([1]; rat, in vivo, iv, 1.5 mg)	clearance ([1]; rat, in vivo, iv, 1.5 mg)	AUC(0-inf) [1, 3]	Cmax [1, 3]	half-life [1, 4]	AUC(0-inf) [1, 5]	AUC(0-inf) [1, 6]	Cmax [1, 7]	Cmax [1, 8]	bioavailability [1, 9]	bioavailability [1, 10]	half-life [1, 11]	half-life [1, 12]	Tmax [1, 9]	Tmax [1, 10]	DLS, 90° size ([2]; cannabinoid 15 mg/ml, 1 day)	DLS, 90° size ([2]; cannabinoid 15 mg/ml, 30 days)	DLS, 90° size ([2]; cannabinoid 30 mg/ml, 1 day)	DLS, 90° size ([2]; cannabinoid 30 mg/ml, 30 days)	also measured
CCCCCc1cc(O)c2c(c1)OC(C)(CCC=C(C)C)C=C2 (centres unmarked) [CBC, cannabichromene]	11 ± 2.2 L/kg	100 mL/min/kg	640 ± 85 ng·h/mL	935 ± 147 ng/mL	2.2 ± 0.4 h	117 ± 33 ng·h/mL	31 ± 23 ng·h/mL	12 ± 2 ng/mL	2.6 ± 1.5 ng/mL	18 ± 5%	34 ± 18%	5.8 ± 1.9 h	13 ± 19 h	3.6 ± 1.9 h	6 ± 1.3 h	25 nm	25 nm	40 nm	34 nm	
C=C(C)[C@@H]1CCC(C)=C[C@H]1c1c(O)cc(CCCCC)cc1O [CBD, cannabidiol]						256 ± 38 ng·h/mL	205 ± 57 ng·h/mL		27 ± 10 ng/mL	45 ± 18%	52 ± 19%	4.4 ± 0.8 h	4.8 ± 0.8 h	3.2 ± 0.9 h	6.8 ± 1.9 h	26 nm	26 nm	200 nm	222 nm	
CCCCCc1cc(O)c(C/C=C(\C)CCC=C(C)C)c(O)c1 [CBG, cannabigerol]	7.3 ± 2.3 L/kg	98.3 mL/min/kg														31 nm	32 nm			AUC(0-inf) ([1]; rat, in vivo, iv, 1.5 mg): 716 ± 136 ng·h/mL; Cmax ([1]; rat, in vivo, iv, 1.5 mg): 1190 ± 286 ng/mL; half-life ([1]; rat, in vivo, iv, 1.5 mg, T1/2): 2.5 ± 1.6 h; T1/2 ([1]; rat, in vivo, po): 5.1 ± 4.1 h; half-life ([1]; rat, in vivo, po, T1/2): 3.1 ± 1.3 h
CCCCCc1cc(O)c2c(c1)OC(C)(C)c1ccc(C)cc1-2 [CBN, cannabinol]	6.5 ± 1.6 L/kg	50 mL/min/kg	1040 ± 212 ng·h/mL	1230 ± 252 ng/mL	5 h	91 ± 19 ng·h/mL	148 ± 57 ng·h/mL	12 ± 3 ng/mL	15.3 ± 4.6 ng/mL	9%	20 ± 7%	3.5 ± 1.1 h	4.2 ± 1.7 h	2.2 ± 0.6 h	6.5 ± 1.2 h	27 nm	27 nm	67 nm	68 nm	T1/2 ([1]; nanoemulsion, IV, rats, 1.5 mg, mean ± SD): 5.3 ± 1.8 h; F0-inf (absolute oral bioavailability) ([1]; nanoemulsion, PO, rats, mean ± SD): 9.2 ± 2.6%

Source: PMC12326358, “Effect of Quantitative Structural Properties and Drug Formulation in Four Cannabinoids (Cannabidiol, Cannabigerol, Cannabichromene, and Cannabinol) on Their Lymphatic Transport after Enteral Administration in Rats” (Molecular Pharmaceutics, 2025)
